# Data as given in US20130079299A1, “Arthritis Therapeutic Agent” (GLUCAN CORPORATION, priority 2010, published 2013).
# Tests used:
# [1] = test system: Sprague-Dawley rats caused to have osteoarthritis; experiment: Osteoarthritis caused by anterior cruciate ligament transection and partial medial meniscectomy, 84 days administration
# Description: Sprague-Dawley rats (male, 6 week-old, SLC., JAPAN) [ANNEX I-III] were prepared as laboratory animals.
# Six experimental groups were formed, with 8 Sprague-Dawley Rats in each group. […] In addition, a negative control group was an OA control group which was treated with nothing after causing osteoarthritis, and a positive control group was administered 2 mg/kg of diclofenac sodium after causing osteoarthritis.
# The medium for the administration was sterilized distilled water at 5 ml/kg.
# For the positive control, 2 mg/kg of the diclofenac sodium was transdermally administered at 1 ml/kg of normal saline as a medium every day for 84 days.
# Each experimental rat was anesthetized with Zoletile 50 (Vir bac Lab., France), and the left articular capsule was exposed and underwent anterior cruciate ligament transaction and partial medial meniscectomy to cause osteoarthritis. For the sham surgery group, the articular capsule was excised to observe the medial meniscus inside the organ and closed without surgical removal.
# Weight change and knee joint thickness change were monitored and measured once a week for 84 days from administration, and on the final day, the maximum stretching angle of the knee joint and the knee joint thickness after exposing the capsule were measured under Safranin O dye, respectively. The Makin scores of the femur and tibia and the cartilage thickness were then histomorphometrically measured, and the articular cartilages of the femur and tibia were each evaluated for BrdU immunoreactivity.
# [2] = test system: rheumatoid arthritis (RA) DBA mouse caused by collagen; experiment: Collagen-induced rheumatoid arthritis (RA) mouse model, histomorphometry of thymus, spleen and knee joint; format: in vivo
# Source text: Bone tissue was amputated from around the thymus and spleen and fixed in 10% neutral formalin, and was then dehydrated and paraffin embedded to provide a 3-4 μm longitudinal section, then dyed with Hematoxylineosin and observed under an optical microscope. In addition, the knee joint of both the rear legs were removed from the around connective tissue and fixed in 10% neutral formalin, and then it was decalcificated using a decalcification solution containing 24.4% of formic acid and 0.5 N of sodium hydroxide for 5 days. […] Then the section was dyed with Hematoxylineosin and observed under the optical microscope. […] DMI, Korea) in the view of a 40×-magnification microscope, and the thickness of articular cartilage of the femur and tibia of the knee joint, the proteoglycan loss, and erosion were evaluated by an automated image analyzer (DMI-300 Image Processing; DMI, Korea) in the view of a 100×-magnification microscope according to the known method [Dudler et al., 2000; van Holten et al., 20 04; Kim et al., 2007]. The proteoglycan loss was evaluated into 3 levels for stainability of Safranin O dye specialized for proteoglycans according to the known method [Williams et al., 1992; Dudler et al., 2000; van Holten et al., 2004]. In other words, 0 indicates no proteoglycan loss, and 3 indicates no stainability because of complete deflection. […] The RA(Rhematoid Arthritis)-induced mouse model using collagen is one of the animal models that are widely used for evaluating the efficacy on RA for various materials [Liu et al., 2008; Miyake et al., 2008; Pa nayi et al., 2008], and RA was caused by the auto-immunity.
# [3] = diclofenac sodium 2 mg/kg transdermal daily 84 days
# [4] = Diclofenac sodium treated group (dose not given)
# [5] = Diclofenac sodium treated group (dose not given), average ± SD of 8 animals
# [6] = Diclofenac sodium treated group (dose not given), ± SD of 16 joints
# [7] = diclofenac sodium group (dose not given)
smiles,measurement,setting,value
"O=C(O)Cc1ccccc1Nc1c(Cl)cccc1Cl [Diclofenac sodium, diclofenac sodium]","BrdU immunoreactive cell number in the femur articular cartilage, change compared to the OA control group",[1]; [3],9.52%
same,"BrdU immunoreactive cell number in the tibia articular cartilage, change compared to the OA control group",[1]; [3],1.56%
same,"Mankin score of the femur, change compared to the OA control group",[1]; [3],−27.85%
same,"Mankin score of the tibia, change compared to the OA control group",[1]; [3],−20.59%
same,"maximum stretching angle of knee joint, change compared to the OA control group",[1]; [3],−18.18%
same,"thickness of the knee joint after exposing the joint capsule, change compared to the OA control group",[1]; [3],−0.99%
same,"thickness of the knee joint in the final autopsy, change compared to the OA control group",[1]; [3],−5.79%
same,"articular cartilage thickness of the femur, change compared to the OA control group","[1]; diclofenac sodium 2 mg/kg transdermal daily 84 days, b105",35.11%
same,thickness of the knee joint compared to osteoarthritis-caused control group over time,"[1]; each of the three-dose Polycan and diclofenac sodium groups, from 21 days after administration, p<0.01 or p<0.05",significantly decreased
same,Cortex thickness (thymus),[2]; [4],1.333 ± 0.705 mm/lobules
same,Total thickness (thymus),[2]; [4],1.941 ± 0.916 mm/lobules
same,Entire thickness (spleen),[2]; [5],4.464 ± 0.58 mm/central part
same,Number of white medulla (spleen),[2]; [5],10.500 ± 2.121 /1 mm^2
same,Thickness of white medulla (spleen),[2]; [5],0.986 ± 0.304 mm/white medulla
same,"Erosion level (Max = 3), femur articular cartilage",[2]; [6],1.000 ± 0.000
same,"Erosion level (Max = 4), tibia articular cartilage",[2]; [6],0.500 ± 1.000
same,"Safranin level (Max = 3), femur articular cartilage",[2]; [6],0.500 ± 0.577
same,"Safranin level (Max = 3), tibia articular cartilage",[2]; [6],1.500 ± 0.577
same,Thickness (mm) of tibia articular cartilage,[2]; [6],0.169 ± 0.024 mm
same,Thickness of the femur articular cartilage,[2]; [6],0.470 ± 0.674 mm
same,"collagen-induced RA opinion (proteoglycan loss, erosion, cartilage thickness of knee joint)","[2]; all Polycan groups except 21.25 mg/kg in the tibia, diclofenac sodium group",remarkably suppressed
same,"Safranin O score of femur articular cartilage, change compared to the RA control group",[2]; [7],−63.64%
same,"Safranin O score of the tibia articular cartilage, change compared to the RA control group",[2]; [7],−29.41%
same,"diameter of the spleen white medulla, change compared to the RA control group",[2]; [7],−8.14%
same,"entire spleen thickness, change compared to the RA control group",[2]; [7],17.49%
same,"entire thymus thickness, change compared to the RA control group",[2]; [7],−2.80%
same,"erosion score of the femur articular cartilage, change compared to the RA control group",[2]; [7],−36.00%
same,"erosion score of the tibia articular cartilage, change compared to the RA control group",[2]; [7],−75.00%
same,"number of spleen white medulla, change compared to the RA control group",[2]; [7],5.00%
same,"thickness of the femur joint cartilage, change compared to the RA control group",[2]; [7],333.70%
same,"thickness of the thymus cortex, change compared to the RA control group",[2]; [7],18.83%
same,"thickness of the tibia articular cartilage, change compared to the RA control group",[2]; [7],38.75%
